The results in this text go back to publication PMC5734604 (Journal of Medicinal Chemistry, 2017).

Assay [1] concerns the target T1, human CB1 receptor (Homo sapiens, UniProt P21554). The assay can be described thus: biochemical. Conditions: for residence time: read-out: RT (residence time). The format is binding.
Assay [2] deals with T1, human CB1 receptor. Briefly: [35S]GTPγS binding antagonism assay, hCB1 HEK-293 membranes. Conditions: recombinant human CB1 receptors on HEK-293 cell membranes, 30 °C; SD (n = 2) or SEM (n ≥ 3). The format is biochemical. A general note: GTPγS resists hydrolysis and so accumulates on activated G proteins.
In assay [3] the target is T1, human CB1 receptor. Conditions: association at 30 °C.
For assay [4], the target named is T1, human CB1 receptor.

Entries after “also recorded” stand apart in the source; their conditions may differ.

T1 sequence (P21554 whole entry): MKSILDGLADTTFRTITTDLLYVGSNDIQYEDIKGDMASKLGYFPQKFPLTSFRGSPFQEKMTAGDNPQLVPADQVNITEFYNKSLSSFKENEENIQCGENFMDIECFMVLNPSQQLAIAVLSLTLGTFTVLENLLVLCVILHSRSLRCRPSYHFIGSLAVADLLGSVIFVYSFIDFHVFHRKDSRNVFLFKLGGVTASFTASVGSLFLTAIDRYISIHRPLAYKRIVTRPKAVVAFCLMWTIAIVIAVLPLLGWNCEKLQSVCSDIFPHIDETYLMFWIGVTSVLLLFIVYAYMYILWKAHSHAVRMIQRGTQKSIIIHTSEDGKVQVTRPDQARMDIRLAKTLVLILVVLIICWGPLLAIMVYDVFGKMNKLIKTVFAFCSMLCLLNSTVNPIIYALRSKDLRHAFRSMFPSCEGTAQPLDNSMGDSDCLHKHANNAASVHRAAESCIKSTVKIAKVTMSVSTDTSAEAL

Regarding `CCCS(=O)(=O)Oc1ccc(-n2c(-c3ccc(Cl)cc3Cl)nc(C(=O)NN3CCCCC3)c2C)cc1` [11b, 4-(2-(2,4-Dichlorophenyl)-5-methyl-4-(piperidin-1-ylcarbamoyl)-1H-imidazol-1-yl)phenyl propane-1-sulfonate], in assay [1], the koff (as a rule, the rate constant with which the complex falls apart) worked out at 0.00022 s⁻¹; the on-rate (kon) (in general, the rate constant with which the complex forms) amounted to 300000 M⁻¹ s⁻¹; the residence time worked out at 78 ± 5 min.

For `CCCCS(=O)(=O)Oc1ccc(-n2c(-c3ccc(Cl)cc3Cl)nc(C(=O)NN3CCCCC3)c2C)cc1` [11e, 4-(2-(2,4-Dichlorophenyl)-5-methyl-4-(piperidin-1-ylcarbamoyl)-1H-imidazol-1-yl)phenyl butane-1-sulfonate], the “[35S]GTPγS binding pIC50 ± SD or SEM” value in assay [2] is recorded as 8.9 ± 0.05.

As for `Cc1c(C(=O)NN2CCCCC2)nc(-c2ccc(Cl)cc2Cl)n1-c1ccc(OS(=O)(=O)CCC(C)C)cc1` [11g, 4-(2-(2,4-Dichlorophenyl)-5-methyl-4-(piperidin-1-ylcarbamoyl)-1H-imidazol-1-yl)phenyl 3-methylbutane-1-sulfonate], the “[35S]GTPγS binding pIC50 ± SD or SEM” value in assay [2] is 8.9 ± 0.1.

Turning to `Cc1c(C(=O)Nc2ccc(F)nc2)nc(-c2ccc(Cl)cc2Cl)n1-c1ccc(OS(=O)(=O)CCC(F)(F)F)cc1` [14f, 4-(2-(2,4-Dichlorophenyl)-4-(6-fluoropyridin-3-ylcarbamoyl)-5-methyl-1H-imidazol-1-yl)phenyl 3,3,3-trifluoropropane-1-sulfonate], in assay [1], the koff is 0.00027 s⁻¹, the on-rate constant (kon) was 720000 M⁻¹ s⁻¹ and the residence time amounted to 62 ± 10 min.

As to `CCCCCCC(C)(C)c1ccc([C@@H]2C[C@H](O)CC[C@H]2CCCO)c(O)c1` [CP55940], the “time at which binding approached equilibrium” value in assay [3] is “approximately 25 min”.

For `Cc1c(C(=O)Nc2ccc(C(F)(F)F)cn2)nc(-c2ccc(Cl)cc2Cl)n1-c1ccc(OS(=O)(=O)CCC(F)(F)F)cc1` [compound 28, 4-(2-(2,4-Dichlorophenyl)-5-methyl-4-(5-(trifluoromethyl)pyridin-2-ylcarbamoyl)-1H-imidazol-1-yl)phenyl 3,3,3-trifluoropropane-1-sulfonate], in assay [4], the “activity of compound alone (absence of CP55940)” value is listed as “inverse agonism” and the “type of antagonism of CP55940 action” value is “insurmountable antagonism; also recorded: insurmountability”. In addition, in assay [1], the off-rate constant (koff) was determined as 7.8e-05 s⁻¹, the kon was 350000 M⁻¹ s⁻¹ and the residence time came to 260 ± 56 min.
